One block for each molecule: values may come before it.
Key:
[1] = Crystal suspensions of microcrystalline paclitaxel in different solvent mixtures; type: physicochemical; set-up: key: +++: good; +/−: average; −−−: poor; conditions: with trioctanoylglycerol
Experimental: To prepare the solutions, 770 mg of trioctanoylglycerol was dissolved in the polar solvent. Then the nonpolar solvent was added. It was then homogenized and filtered.
To test whether crystal suspension could be prepared, 10 mL of each of the solutions was carefully added to 200 mg of paclitaxelin the form of microcrystals at room temperature. After combining, it was tested whether stable crystal suspensions were obtained.

[2] = Crystal suspensions of microcrystalline paclitaxel with different proportions of tri-O-acylglycerol; type: physicochemical; conditions: tri-O-acylglycerol:paclitaxel 20:80, after 100 h
Experimental: For this purpose, further investigation was carried out using solutions of trioctanoylglycerol or tridecanoylglycerol with different proportions of tri-O-acylglycerol to find out the optimum mass ratio of tri-O-acylglycerol to microcrystalline paclitaxel. To prepare the solutions, the appropriate amount of each tri-O-acylglycerol was dissolved in 14 g ethyl acetate (15.6 mL). […] Subsequently, homogenization and filtration were performed.

[3] = Uniformity of coating and recovery rate of active agent on coated balloon catheters
Excerpt: Balloon catheters 4×40 mm were coated with a 2% PTX suspension containing trioctanoylglycerol (20 wt % based on PTX) using a droplet dosing technique in a microdosing method such as the pipetting method, or droplet dragging method. […] The studies on the recovery rate of active agent on balloon catheters divided into equally sized segments confirm the uniformity of the coating and thus the success in using a crystal suspension as well as a 100% recovery rate
Balloon catheters 4×40 mm were each coated with a 2% PTX suspension containing tridodecanoylglycerol or tritetradecanoylglycerol (20 wt % based on PTX) using a drop dosing technique in a micro dosing method such as the pipetting method or drop dragging method.
For this purpose, the coated weighed balloon is fixed and inflated. The balloon is then cut with a scalpel into pieces of as equal size as possible, e.g. a 40 mm long balloon into 4 pieces, a 120 mm long balloon can be divided into 6 pieces. First, cut the balloon in half lengthwise and measure the layer thickness with a micrometer. Then the balloon is divided and the pieces are weighed and also the layer thicknesses are measured with the micrometer.
The coatings are each dissolved in a defined amount of acetone and the amount of active agent is determined via HPLC. The results are compared with each other, taking into account the balloon section areas.

[4] = Preparation and stability of crystal suspensions of microcrystalline paclitaxel with solutions of different tri-O-acylglycerols; conditions: for microcrystals intact in SEM images: SEM 200× and 1000×; for microcrystals of paclitaxel dissolve directly in the solution: directly after combining, room temperature; for paclitaxel microcrystals on temperature increase: temperature increased (50° C.)
Excerpt: In the first step, solutions of tri-O-acylglycerols were first prepared in a solvent mixture. Subsequently, the solutions were combined with microcrystals of paclitaxel to investigate which tri-O-acylglycerols could be used to obtain stable crystal suspensions. […] For the preparation of the solutions, an ethyl acetate/heptane solvent mixture was used here as an example.
To prepare the solutions, the respective tri-O-acylglycerol was first dissolved in a polar organic solvent and then a non-polar solvent was added.
To prepare the solutions, 770 mg of the respective tri-O-acylglycerol were dissolved in 14 g ethyl acetate (15.6 mL). Then, 57.4 g of n-heptane (84.4 mL) was added.
Subsequently, homogenization and filtration were performed. The total volume of the solvent mixture is 100 mL.
To a precisely weighed amount of dry microcrystals of the previously prepared paclitaxel, a defined amount of the solutions containing tri-O-acylglycerol and optionally antioxidant is carefully added.
To check whether crystal suspension can be prepared, to each 200 mg of paclitaxel in the form of microcrystals were carefully added 10 mL of one of the solutions 1a) to 1j) at room temperature. Six mixtures of 10 mL of solution for each solution were prepared. After combining, it was tested whether the microcrystals of paclitaxel dissolved directly in the solutions.
To evaluate the crystal size, particle size distribution (i.e., crystal size distribution), and shape of the crystals, a sample was taken with a Pasteur pipette in each case and a drop was placed on the slide of the SEM sample plate. SEM images were taken at 200× and 1000× magnification for evaluation.
To evaluate the crystal size, particle size distribution (i.e., crystal size distribution), and shape of the crystals, one sample was taken from each using a Pasteur pipette and one drop was placed on the foil of the SEM sample plate. An additional sample was taken from the sediment and one drop was placed on the slide of the SEM sample plate. SEM images were taken at 200× and 1000× magnification for evaluation. SEM images were taken at 200 and 1000× magnification for evaluation.
To prepare the solutions, 770 mg of the respective tri-O-acylglycerol were dissolved in 14 g ethyl acetate (15.6 mL). Then, 57.4 g of n-heptane (84.4 mL) was added. Subsequently, homogenization and filtration were performed. The total volume of the solvent mixture is 100 mL.
Three mixtures of 10 mL of solution for each solution were prepared. After combining, it was tested whether the microcrystals dissolved directly in these solutions.

[5] = cited from earlier work
[6] = 100 h and temperature elevation to 50° C.
[7] = after 24-48 hours and temperature elevation to 50° C.

SMILES: CC(=O)O[C@H]1C(=O)[C@@]2(C)[C@H]([C@H](OC(=O)c3ccccc3)[C@]3(O)C[C@H](OC(=O)[C@H](O)[C@@H](NC(=O)c4ccccc4)c4ccccc4)C(C)=C1C3(C)C)[C@]1(OC(C)=O)CO[C@@H]1C[C@@H]2O [paclitaxel, (2α,4α,5β,7β,10β,13α)-4,10-Bis(acetyloxy)-13-{[(2R,3S)-3-(benzoylamino)-2-hydroxy-3-phenylpropanoyl]oxy}-1,7-dihydroxy-9-oxo-5,20-epoxytax-11-en-2-yl-benzoat]
- Crystal suspension ([1]; Acetone/Cyclohexane 10:90 (v/v polar/non-polar)): +++
- Crystal suspension ([1]; Acetone/Cyclohexane 50:50 (v/v polar/non-polar)): −−−
- Crystal suspension ([1]; Acetone/Cyclohexane 60:40 (v/v polar/non-polar)): −−−
- Crystal suspension ([1]; Acetone/Heptane 10:90 (v/v polar/non-polar)): +++
- Crystal suspension ([1]; Acetone/Heptane 60:40 (v/v polar/non-polar)): −−−
- Crystal suspension ([1]; Acetone/Hexane 10:90 (v/v polar/non-polar)): +++
- Crystal suspension ([1]; Acetone/Hexane 50:50 (v/v polar/non-polar)): −−−
- Crystal suspension ([1]; Acetone/Hexane 60:40 (v/v polar/non-polar)): −−−
- Crystal suspension ([1]; Ethanol/Cyclohexane 10:90 (v/v polar/non-polar)): +++
- Crystal suspension ([1]; Ethanol/Cyclohexane 60:40 (v/v polar/non-polar)): −−−
- Crystal suspension ([1]; Ethanol/Heptane 10:90 (v/v polar/non-polar)): +++
- Crystal suspension ([1]; Ethanol/Heptane 60:40 (v/v polar/non-polar)): −−−
- Crystal suspension ([1]; Ethanol/Hexane 10:90 (v/v polar/non-polar)): +++
- Crystal suspension ([1]; Ethanol/Hexane 60:40 (v/v polar/non-polar)): −−−
- Crystal suspension ([1]; Ethyl acetate/Cyclohexane 10:90 (v/v polar/non-polar)): +++
- Crystal suspension ([1]; Ethyl acetate/Cyclohexane 30:70 (v/v polar/non-polar)): +++
- Crystal suspension ([1]; Ethyl acetate/Cyclohexane 40:60 (v/v polar/non-polar)): +++
- Crystal suspension ([1]; Ethyl acetate/Cyclohexane 60:40 (v/v polar/non-polar)): +/−
- Crystal suspension ([1]; Ethyl acetate/Heptane 10:90 (v/v polar/non-polar)): +++
- Crystal suspension ([1]; Ethyl acetate/Heptane 30:70 (v/v polar/non-polar)): +++
- Crystal suspension ([1]; Ethyl acetate/Heptane 40:60 (v/v polar/non-polar)): +++
- Crystal suspension ([1]; Ethyl acetate/Heptane 60:40 (v/v polar/non-polar)): +/−
- Crystal suspension ([1]; Ethyl acetate/Hexane 10:90 (v/v polar/non-polar)): +++
- Crystal suspension ([1]; Ethyl acetate/Hexane 30:70 (v/v polar/non-polar)): +++
- Crystal suspension ([1]; Ethyl acetate/Hexane 40:60 (v/v polar/non-polar)): +++
- Crystal suspension ([1]; Ethyl acetate/Hexane 60:40 (v/v polar/non-polar)): +/−
- Crystal suspension ([1]; iso-propanol/Cyclohexane 10:90 (v/v polar/non-polar)): +++
- Crystal suspension ([1]; iso-propanol/Cyclohexane 50:50 (v/v polar/non-polar)): −−−
- Crystal suspension ([1]; iso-propanol/Cyclohexane 60:40 (v/v polar/non-polar)): −−−
- Crystal suspension ([1]; iso-propanol/Heptane 10:90 (v/v polar/non-polar)): +++
- Crystal suspension ([1]; iso-propanol/Heptane 50:50 (v/v polar/non-polar)): −−−
- Crystal suspension ([1]; iso-propanol/Heptane 60:40 (v/v polar/non-polar)): −−−
- Crystal suspension ([1]; iso-propanol/Hexane 10:90 (v/v polar/non-polar)): +++
- Crystal suspension ([1]; iso-propanol/Hexane 50:50 (v/v polar/non-polar)): −−−
- Crystal suspension ([1]; iso-propanol/Hexane 60:40 (v/v polar/non-polar)): −−−

SMILES: CCCCCCCCCC(=O)OCC(COC(=O)CCCCCCCCC)OC(=O)CCCCCCCCC [tridecanoylglycerol]
- stability of crystal suspension at ratio 20:80 [2]: excellent stable
- stability and flexibility of coating [3]: particularly stable and flexible coating
- stability of crystal suspension [4, 6]: remained stable
- solubility in water [5]: practically insoluble

SMILES: CCCCCCC(=O)OCC(COC(=O)CCCCCC)OC(=O)CCCCCC [triheptanoylglycerol]
- state of paclitaxel microcrystals in the suspension after 100 h [4]: partially dissolved
- microcrystals intact in SEM images [4]: did not remain intact
- microcrystals of paclitaxel dissolve directly in the solution [4]: did not dissolve directly
- paclitaxel microcrystals on temperature increase [4]: dissolved

SMILES: CCCCCC(=O)OCC(COC(=O)CCCCC)OC(=O)CCCCC [trihexanoylglycerol]
- state of paclitaxel microcrystals in the suspension after 100 h [4]: not as uniformly present
- microcrystals of paclitaxel dissolve directly in the solution [4]: did not dissolve directly
- paclitaxel microcrystals on temperature increase [4]: dissolved rapidly

SMILES: CCCCCCCCC(=O)OCC(COC(=O)CCCCCCCC)OC(=O)CCCCCCCC [trinonanoylglycerol]
- stability of crystal suspension [4, 7]: remained stable
- solubility in water [5]: practically insoluble

SMILES: CCCCCCCC(=O)OCC(COC(=O)CCCCCCC)OC(=O)CCCCCCC [trioctanoylglycerol]
- stability of crystal suspension at ratio 20:80 [2]: excellent stable
- stability and flexibility of coating [3]: particularly stable and flexible coating
- stability of crystal suspension [4, 6]: remained stable
- solubility in water [5]: practically insoluble

More lines, main results first:

- sedimentation of the microcrystals [4]: sedimentation of the crystals occurred
- state of paclitaxel microcrystals in the suspension after 100 h [4]: did not dissolve completely
- microcrystals intact in SEM images [4]: did not remain intact
- microcrystals of paclitaxel dissolve directly in the solution [4]: did not dissolve directly
SMILES: CCCCCCCCCCCC(=O)OCC(COC(=O)CCCCCCCCCCC)OC(=O)CCCCCCCCCCC [tridodecanoylglycerol]

- sedimentation of the microcrystals [4]: sedimentation of the crystals occurred
- state of paclitaxel microcrystals in the suspension after 100 h [4]: did not dissolve completely
- microcrystals intact in SEM images [4]: did not remain intact
- microcrystals of paclitaxel dissolve directly in the solution [4]: did not dissolve directly
SMILES: CCCCCCCCCCCCCC(=O)OCC(COC(=O)CCCCCCCCCCCCC)OC(=O)CCCCCCCCCCCCC [tritetradecanoylglycerol]

- sedimentation of the microcrystals [4]: no sedimentation
- microcrystals intact in SEM images [4]: remained intact
- stability of crystal suspension [4, 7]: remained stable
SMILES: CCCCCCCCCCC(=O)OCC(COC(=O)CCCCCCCCCC)OC(=O)CCCCCCCCCC [triundecanoylglycerol, 1,3-bis(undecanoyloxy)propan-2-yl-undecanoate]
- solubility in water [5]: practically insoluble
